pIC50: −log10 of the molar value. Where two headings read alike, the source gives them in different places.
How the values were obtained:
α1A (h) = molecular target: T1, α1A (h) (Homo sapiens, UniProt P35348); format: binding; conditions: 1 h, 1.0E-06 M
T1 construct: expressed in transfected cells; host or cells: CHO cells
T1 sequence (P35348 1-466): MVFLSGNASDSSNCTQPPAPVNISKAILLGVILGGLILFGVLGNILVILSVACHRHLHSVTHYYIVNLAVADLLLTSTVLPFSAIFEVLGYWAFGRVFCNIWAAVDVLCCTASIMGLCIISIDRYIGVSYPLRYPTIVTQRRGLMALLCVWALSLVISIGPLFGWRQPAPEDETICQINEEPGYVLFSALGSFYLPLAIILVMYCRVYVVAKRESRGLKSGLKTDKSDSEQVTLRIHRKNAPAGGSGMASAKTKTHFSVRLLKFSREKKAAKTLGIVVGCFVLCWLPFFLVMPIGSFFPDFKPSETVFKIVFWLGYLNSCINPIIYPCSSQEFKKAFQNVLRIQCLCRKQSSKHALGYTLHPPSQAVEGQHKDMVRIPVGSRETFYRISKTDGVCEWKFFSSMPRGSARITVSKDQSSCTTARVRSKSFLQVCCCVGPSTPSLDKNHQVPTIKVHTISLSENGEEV

hTRPC4 = molecular target: T2, hTRPC4 (Homo sapiens, UniProt Q9UBN4); experiment: Whole-cell manual patch clamp; format: cell-based; conditions: 10 µM carbachol /M1R
T2 construct: The cDNAs for various full-length ion channels were subcloned into pcDNA5/TO; expressed in transfected cells; M1R co-expressed in the calcium assay, M2R in patch clamp
T2 sequence (Q9UBN4 1-893 isoform Q9UBN4-2): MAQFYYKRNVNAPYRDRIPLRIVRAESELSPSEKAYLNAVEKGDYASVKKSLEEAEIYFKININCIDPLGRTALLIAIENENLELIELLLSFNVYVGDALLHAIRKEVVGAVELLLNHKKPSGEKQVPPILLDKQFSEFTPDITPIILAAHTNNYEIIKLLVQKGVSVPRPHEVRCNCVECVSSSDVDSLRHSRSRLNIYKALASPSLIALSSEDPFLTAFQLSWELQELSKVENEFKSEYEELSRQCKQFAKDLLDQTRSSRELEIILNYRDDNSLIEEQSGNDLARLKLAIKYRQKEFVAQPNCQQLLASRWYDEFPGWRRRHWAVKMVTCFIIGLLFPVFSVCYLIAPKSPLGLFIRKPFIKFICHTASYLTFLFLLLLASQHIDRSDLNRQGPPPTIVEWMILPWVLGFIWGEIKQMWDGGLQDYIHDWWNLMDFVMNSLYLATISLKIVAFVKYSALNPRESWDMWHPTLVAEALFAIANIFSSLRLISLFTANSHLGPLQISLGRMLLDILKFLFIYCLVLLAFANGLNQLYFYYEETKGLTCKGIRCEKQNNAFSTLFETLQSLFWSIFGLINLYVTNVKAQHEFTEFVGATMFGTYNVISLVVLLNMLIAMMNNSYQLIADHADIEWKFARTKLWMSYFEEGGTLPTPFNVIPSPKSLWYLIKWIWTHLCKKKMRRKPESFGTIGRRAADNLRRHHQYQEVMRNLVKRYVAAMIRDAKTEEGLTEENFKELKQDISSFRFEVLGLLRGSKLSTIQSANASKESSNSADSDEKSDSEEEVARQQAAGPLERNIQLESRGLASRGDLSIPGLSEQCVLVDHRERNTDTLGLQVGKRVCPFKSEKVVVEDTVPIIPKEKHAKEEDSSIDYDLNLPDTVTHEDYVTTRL

α1 (non-selective) = format: binding, rat; conditions: 1.0E-06 M
AT1 (h) = molecular target: T3, AT1 (h) (Homo sapiens, UniProt P30556); format: binding; conditions: 1.0E-06 M
T3 construct: host or cells: HEK-293 cells
T3 sequence (P30556 1-359): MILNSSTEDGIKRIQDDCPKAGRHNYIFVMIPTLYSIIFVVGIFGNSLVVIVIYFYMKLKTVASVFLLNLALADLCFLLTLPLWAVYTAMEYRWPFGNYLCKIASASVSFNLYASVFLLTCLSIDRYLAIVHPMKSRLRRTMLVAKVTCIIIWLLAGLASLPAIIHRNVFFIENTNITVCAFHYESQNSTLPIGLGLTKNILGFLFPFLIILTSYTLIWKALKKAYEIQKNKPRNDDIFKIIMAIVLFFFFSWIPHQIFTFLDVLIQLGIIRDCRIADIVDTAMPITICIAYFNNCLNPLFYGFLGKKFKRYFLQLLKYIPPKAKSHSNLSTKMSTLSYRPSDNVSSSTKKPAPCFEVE

CCK2 (CCKB) (h) = CCK2 (CCKB) (h) (Homo sapiens, UniProt P32239); format: binding; conditions: 1.0E-06 M
Chain of CCK2 (CCKB) (h) (P32239 whole entry): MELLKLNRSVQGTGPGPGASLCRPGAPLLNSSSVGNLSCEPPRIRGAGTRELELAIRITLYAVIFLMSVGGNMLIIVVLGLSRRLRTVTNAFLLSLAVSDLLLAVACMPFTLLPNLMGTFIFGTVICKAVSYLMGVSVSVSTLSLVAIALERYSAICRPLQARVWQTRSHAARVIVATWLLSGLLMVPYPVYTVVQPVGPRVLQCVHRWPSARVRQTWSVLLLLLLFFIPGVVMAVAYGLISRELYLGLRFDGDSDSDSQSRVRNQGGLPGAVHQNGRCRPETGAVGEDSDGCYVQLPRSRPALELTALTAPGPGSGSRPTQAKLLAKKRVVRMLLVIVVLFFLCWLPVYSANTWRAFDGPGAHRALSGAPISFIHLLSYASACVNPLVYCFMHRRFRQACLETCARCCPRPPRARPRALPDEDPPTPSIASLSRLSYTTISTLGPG

H3 (h) = molecular target: T4, H3 (h) (Homo sapiens, UniProt Q9Y5N1); format: binding
T4 construct: host or cells: CHO cells
T4 sequence (Q9Y5N1 whole entry): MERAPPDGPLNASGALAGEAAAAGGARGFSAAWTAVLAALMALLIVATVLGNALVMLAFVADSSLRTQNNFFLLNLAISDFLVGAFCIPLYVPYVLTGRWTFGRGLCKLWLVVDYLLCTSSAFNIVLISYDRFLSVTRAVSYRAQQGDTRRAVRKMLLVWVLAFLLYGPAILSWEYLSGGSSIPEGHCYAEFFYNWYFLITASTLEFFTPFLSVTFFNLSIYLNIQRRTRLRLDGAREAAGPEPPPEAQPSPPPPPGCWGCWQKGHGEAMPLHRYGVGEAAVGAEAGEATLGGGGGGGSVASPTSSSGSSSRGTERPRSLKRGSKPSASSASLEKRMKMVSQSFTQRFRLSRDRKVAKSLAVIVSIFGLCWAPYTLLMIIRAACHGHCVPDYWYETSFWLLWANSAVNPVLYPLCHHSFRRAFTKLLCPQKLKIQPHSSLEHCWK

V1a (h) = molecular target: T5, V1a (h) (Homo sapiens, UniProt P37288); format: binding; conditions: 1.0E-06 M
T5 construct: host or cells: CHO cells
T5 sequence (P37288 whole entry): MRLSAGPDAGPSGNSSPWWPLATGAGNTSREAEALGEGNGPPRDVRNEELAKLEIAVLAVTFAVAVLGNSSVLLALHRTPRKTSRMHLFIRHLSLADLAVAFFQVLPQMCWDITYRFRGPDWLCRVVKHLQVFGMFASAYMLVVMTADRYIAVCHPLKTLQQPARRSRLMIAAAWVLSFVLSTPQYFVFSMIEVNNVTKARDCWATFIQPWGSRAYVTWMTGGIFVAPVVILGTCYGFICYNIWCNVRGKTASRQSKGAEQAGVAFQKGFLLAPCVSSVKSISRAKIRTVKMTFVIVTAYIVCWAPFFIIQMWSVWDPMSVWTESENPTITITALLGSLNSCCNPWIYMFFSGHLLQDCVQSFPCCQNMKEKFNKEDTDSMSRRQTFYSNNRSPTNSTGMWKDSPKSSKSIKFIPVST

[1] = molecular target: T6, choline transporter (CHT1) (h) (Homo sapiens, UniProt Q9GZV3); format: binding; conditions: 1.0E-06 M
T6 construct: host or cells: CHO cells
T6 sequence (Q9GZV3 1-580): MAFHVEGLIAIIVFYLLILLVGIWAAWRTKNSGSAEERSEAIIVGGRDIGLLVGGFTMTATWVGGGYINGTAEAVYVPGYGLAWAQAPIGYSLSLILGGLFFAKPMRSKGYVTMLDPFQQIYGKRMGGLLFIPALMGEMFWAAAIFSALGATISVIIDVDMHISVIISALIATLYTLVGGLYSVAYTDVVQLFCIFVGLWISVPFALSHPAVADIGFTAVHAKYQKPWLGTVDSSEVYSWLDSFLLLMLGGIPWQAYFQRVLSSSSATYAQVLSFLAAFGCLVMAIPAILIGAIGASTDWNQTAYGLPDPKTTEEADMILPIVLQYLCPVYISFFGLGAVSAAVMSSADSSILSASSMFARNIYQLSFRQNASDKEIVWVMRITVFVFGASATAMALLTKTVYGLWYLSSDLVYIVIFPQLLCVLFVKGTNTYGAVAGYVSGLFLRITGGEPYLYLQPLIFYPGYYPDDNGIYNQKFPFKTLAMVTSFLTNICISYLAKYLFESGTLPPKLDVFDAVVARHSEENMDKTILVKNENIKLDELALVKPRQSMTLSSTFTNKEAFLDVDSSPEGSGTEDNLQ

PDE4D2 (h) = PDE4D2 (h) (Homo sapiens, UniProt Q08499); experiment: biochemical; conditions: 1.0E-06 M
Chain of PDE4D2 (h) (Q08499 303-809 limits assumed): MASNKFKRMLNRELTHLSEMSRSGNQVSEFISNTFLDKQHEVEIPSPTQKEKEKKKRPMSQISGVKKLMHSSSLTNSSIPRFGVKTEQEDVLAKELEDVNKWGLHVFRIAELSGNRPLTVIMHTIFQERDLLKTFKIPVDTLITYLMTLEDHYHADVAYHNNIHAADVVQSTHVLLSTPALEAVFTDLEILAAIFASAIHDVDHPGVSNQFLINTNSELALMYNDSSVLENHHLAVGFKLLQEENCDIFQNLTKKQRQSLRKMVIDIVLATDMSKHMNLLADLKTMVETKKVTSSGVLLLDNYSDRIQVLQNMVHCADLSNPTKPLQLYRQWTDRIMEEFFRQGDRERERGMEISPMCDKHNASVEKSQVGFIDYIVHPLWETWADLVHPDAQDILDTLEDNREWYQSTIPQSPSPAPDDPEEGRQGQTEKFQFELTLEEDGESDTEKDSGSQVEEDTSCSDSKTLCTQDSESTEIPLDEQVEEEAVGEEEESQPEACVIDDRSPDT

CaMK2α (h) = CaMK2α (h) (Homo sapiens, UniProt Q9UQM7); experiment: enzyme assay; format: biochemical; conditions: 1.0E-06 M
TRPC6 = TRPC6 (Homo sapiens, UniProt Q9Y210); experiment: cell-based
Chain of TRPC6 (Q9Y210 whole entry, species assumed): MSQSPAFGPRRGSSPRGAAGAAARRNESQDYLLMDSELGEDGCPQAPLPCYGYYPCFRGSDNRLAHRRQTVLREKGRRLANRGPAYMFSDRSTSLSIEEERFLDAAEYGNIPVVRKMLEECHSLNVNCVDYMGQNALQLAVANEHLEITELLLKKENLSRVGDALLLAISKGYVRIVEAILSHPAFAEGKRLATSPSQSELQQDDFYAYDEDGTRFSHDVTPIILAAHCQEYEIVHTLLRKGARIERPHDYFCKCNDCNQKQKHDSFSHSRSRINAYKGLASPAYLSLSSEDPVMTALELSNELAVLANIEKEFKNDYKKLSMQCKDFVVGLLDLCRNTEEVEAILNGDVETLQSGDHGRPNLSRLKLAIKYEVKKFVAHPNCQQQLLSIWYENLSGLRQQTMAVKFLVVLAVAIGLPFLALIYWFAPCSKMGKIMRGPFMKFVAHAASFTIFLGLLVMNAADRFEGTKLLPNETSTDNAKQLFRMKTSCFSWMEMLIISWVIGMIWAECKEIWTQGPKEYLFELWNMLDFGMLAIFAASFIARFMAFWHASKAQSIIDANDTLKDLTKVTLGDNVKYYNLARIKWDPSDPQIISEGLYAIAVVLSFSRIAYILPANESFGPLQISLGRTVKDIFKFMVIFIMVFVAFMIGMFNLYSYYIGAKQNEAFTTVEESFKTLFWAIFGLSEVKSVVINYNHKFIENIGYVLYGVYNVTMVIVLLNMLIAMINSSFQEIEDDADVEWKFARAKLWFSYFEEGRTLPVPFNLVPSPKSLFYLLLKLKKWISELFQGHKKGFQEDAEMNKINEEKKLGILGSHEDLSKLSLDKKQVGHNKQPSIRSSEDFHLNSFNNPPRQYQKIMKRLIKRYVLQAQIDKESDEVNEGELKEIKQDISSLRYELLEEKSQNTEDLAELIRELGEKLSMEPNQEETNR

5-HT1B = 5-HT1B (Rattus norvegicus, UniProt P28564); experiment: biochemical
Chain of 5-HT1B (P28564 whole entry): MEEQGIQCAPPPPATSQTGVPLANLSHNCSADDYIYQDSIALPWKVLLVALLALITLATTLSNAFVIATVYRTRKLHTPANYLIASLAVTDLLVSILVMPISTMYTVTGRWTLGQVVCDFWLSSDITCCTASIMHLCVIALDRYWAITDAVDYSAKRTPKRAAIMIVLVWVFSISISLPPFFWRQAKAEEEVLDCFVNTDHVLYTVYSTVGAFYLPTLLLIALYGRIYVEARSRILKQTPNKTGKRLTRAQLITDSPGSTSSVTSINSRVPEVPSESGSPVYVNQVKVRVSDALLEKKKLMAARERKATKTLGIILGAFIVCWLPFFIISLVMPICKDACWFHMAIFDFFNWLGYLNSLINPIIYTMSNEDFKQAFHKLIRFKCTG

Compound: Cn1c(=O)n(CCCO)c(=O)c2c1nc(Oc1cccc(Cl)c1)n2Cc1ccc(Cl)cc1 [HC-070]
- inhibition at 1 µM (α1A (h); read-out: % Inhibition 1st): -6.1%
- inhibition at 1 µM (α1A (h); read-out: % Inhibition 2nd): 3.1%
- inhibition at 1 µM (α1A (h); read-out: % Inhibition Mean): -1.5%

Compound: Cn1c(=O)n(CCCO)c(=O)c2c1nc(Oc1cccc(OC(F)(F)F)c1)n2Cc1ccc(Cl)cc1 [HC-608]
- pIC50 (hTRPC4): ~9.77
- % Inhibition 1st (α1 (non-selective)): -2.8%
- % Inhibition 2nd (α1 (non-selective)): 1.1%
- % Inhibition Mean (α1 (non-selective)): -0.8%
- inhibition at 1 µM (AT1 (h); read-out: % Inhibition 1st): 0.5%
- inhibition at 1 µM (AT1 (h); read-out: % Inhibition 2nd): -6%
- inhibition at 1 µM (AT1 (h); read-out: % Inhibition Mean): -2.7%
- inhibition at 1 µM (CCK2 (CCKB) (h); read-out: % Inhibition 1st): -13.8%
- inhibition at 1 µM (CCK2 (CCKB) (h); read-out: % Inhibition 2nd): -0.7%
- inhibition at 1 µM (CCK2 (CCKB) (h); read-out: % Inhibition Mean): -7.2%
- inhibition at 1 µM (H3 (h); 1.0E-06 M, read-out: % Inhibition 2nd): -0.8%
- inhibition at 1 µM (H3 (h); 1.0E-06 M, read-out: % Inhibition Mean): -13.4%
- inhibition at 1 µM (H3 (h); read-out: % Inhibition 1st): -25.9%
- inhibition at 1 µM (V1a (h); read-out: % Inhibition 1st): -9.9%
- inhibition at 1 µM (V1a (h); read-out: % Inhibition 2nd): 12.5%
- inhibition at 1 µM (V1a (h); read-out: % Inhibition Mean): 1.3%
- inhibition at 1 µM ([1]; read-out: % Inhibition 1st): -5.8%
- inhibition at 1 µM ([1]; read-out: % Inhibition 2nd): -1.9%
- inhibition at 1 µM ([1]; read-out: % Inhibition Mean): -3.9%
- inhibition at 1 µM (PDE4D2 (h); read-out: % Inhibition 1st): 1.3%
- inhibition at 1 µM (PDE4D2 (h); read-out: % Inhibition 2nd): -2%
- inhibition at 1 µM (PDE4D2 (h); read-out: % Inhibition Mean): -0.3%
- inhibition at 1 µM (CaMK2α (h); read-out: % Inhibition 1st): -4%
- inhibition at 1 µM (CaMK2α (h); read-out: % Inhibition 2nd): 2.8%
- inhibition at 1 µM (CaMK2α (h); read-out: % Inhibition Mean): -0.6%
- pIC50 (TRPC6): < 5.79
- inhibition at 1 µM (5-HT1B; read-out: % Inhibition 1st): -11%
- inhibition at 1 µM (5-HT1B; read-out: % Inhibition 2nd): -9.4%
- inhibition at 1 µM (5-HT1B; read-out: % Inhibition Mean): -10.2%
